According to patent publication US12398128B2, “Physics-driven discovery of novel small therapeutic compounds for use as a BCL-2 inhibitor” (BAHCESEHIR UNIVERSITESI, priority 2021, dated 2025):

Tested on: HCT-116 colon cancer cell line
Assay: MTT cell proliferation assay on HCT-116 cells
Format: cell-based
Protocol: For cell culture experiments various cancer cell lines, HCT-116 colon cancer, U87-MG glial tumor, MCF7 breast cancer cell lines were used. Cells were seeded with high glucose DMEM medium (Biosera) supplemented with 10% FBS (Gibco) and 1× penicillin/streptomycin (Multicell). Twenty-four hours prior to molecule treatment, 10,000 cells were seeded into each well of 24-well cell culture plates. Molecules were used by preparing 4 mM stock solution in DMSO (Amresco). For molecule treatment, molecule stock solutions were diluted in DMEM with 10% FBS and added onto cells in each corresponding well. Final concentration of vehicle DMSO was 2% at maximum. Therefore, the vehicle group in experiments only included maximum of 2% DMSO concentration. We calculated the number of cells to be seeded to make sure that none of the cells reaches more than 60% confluency during the treatment period, as higher plate confluency levels would slow down cell proliferation independently from the molecule treatment.
Values of half-maximal inhibitory concentration were (IC50) determined by MTT cell proliferation assays. Different concentrations of molecules ranging between 10^-9 to 10^-4 M were tested on HCT-116 cell lines with single treatment. 570 nm absorbance values were recorded and IC50 values were calculated by dose response-inhibition curves and nonlinear regression analysis on GraphPad Prism 8 software. For cell proliferation assays we performed five days experiments and repeated experiments at least three times with all cell lines. […] Therefore, three days results were presented. MTT analysis were performed on 24-well plates with initially 1×10^4 cells/well, grown overnight, and then treated with the selected molecules with different concentrations for at least 3 days. Following the initial incubation day, molecules were added and after incubation with MTT at 37° C. for 4 hours, formazan was solubilized with DMSO (Sigma-Aldrich, St. Louis, USA) and absorbance was measured at 570 nm. […] The IC50 value of compound of formula I was determined to be 22 μm (FIG. 1).

IC50 (Homo sapiens, 72 h, HCT-116 cells, single treatment, 10^-9 to 10^-4 M, 570 nm absorbance, three days results, read-out: IC50 (half-maximal inhibitory concentration), MTT cell proliferation assay): 22 µM
SMILES: O=C(CSc1nc2ccc(N3C(=O)c4ccccc4C3=O)cc2s1)c1ccc(-c2ccccc2)cc1 [compound of formula I]
cell morphology of treated HCT-116 cells (HCT-116 cells treated with compound versus vehicle group): apoptotic cell structures | proliferation of HCT-116 cells versus vehicle group (FIG. 1) (HCT-116 cells, MTT, cell viability over time, vehicle max 2% DMSO): reduced proliferation
